Measured values: article PMC12310023 (PLOS Neglected Tropical Diseases, 2025)
Like-named read-outs stand apart in the source and are kept apart here.

What was measured:
[1] = tested on: panel of 71 common liability targets; assay: Cerep panel of 71 common liability targets; type: binding; conditions: read-out: IC50s, all Cerep targets except AT2
[2] = Plasma protein binding, equilibrium dialysis; conditions: bovine
[3] = target: T1, A3 (Homo sapiens, UniProt P0DMS8); assay: Cerep cellular and nuclear receptor functional assay
T1 sequence (P0DMS8 1-318): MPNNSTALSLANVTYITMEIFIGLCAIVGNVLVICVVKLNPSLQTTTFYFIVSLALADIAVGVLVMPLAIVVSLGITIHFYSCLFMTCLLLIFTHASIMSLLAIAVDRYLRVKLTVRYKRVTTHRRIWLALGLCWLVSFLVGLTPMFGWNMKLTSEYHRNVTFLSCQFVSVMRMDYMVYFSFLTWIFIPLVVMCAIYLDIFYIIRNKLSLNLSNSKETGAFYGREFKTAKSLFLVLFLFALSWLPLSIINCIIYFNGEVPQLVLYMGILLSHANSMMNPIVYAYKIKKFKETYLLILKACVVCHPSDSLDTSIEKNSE

[4] = Plasma protein binding, equilibrium dialysis; conditions: dog
[5] = Plasma protein binding, equilibrium dialysis; conditions: rat
[6] = Mouse PK, IFNγ-KO BL6
[7] = Mouse PK, Balb/c
[8] = Liver microsome stability; conditions: monkey, pooled liver microsomes
[9] = target: Cav1.2 (L-type) (Homo sapiens, UniProt Q13936); assay: Bioprofiling panel functional assay; type: cell-based; conditions: 6 pt dilutions starting at 10 μM; read-out: IC50, antagonist readout
Cav1.2 (L-type), sequence (Q13936 whole entry): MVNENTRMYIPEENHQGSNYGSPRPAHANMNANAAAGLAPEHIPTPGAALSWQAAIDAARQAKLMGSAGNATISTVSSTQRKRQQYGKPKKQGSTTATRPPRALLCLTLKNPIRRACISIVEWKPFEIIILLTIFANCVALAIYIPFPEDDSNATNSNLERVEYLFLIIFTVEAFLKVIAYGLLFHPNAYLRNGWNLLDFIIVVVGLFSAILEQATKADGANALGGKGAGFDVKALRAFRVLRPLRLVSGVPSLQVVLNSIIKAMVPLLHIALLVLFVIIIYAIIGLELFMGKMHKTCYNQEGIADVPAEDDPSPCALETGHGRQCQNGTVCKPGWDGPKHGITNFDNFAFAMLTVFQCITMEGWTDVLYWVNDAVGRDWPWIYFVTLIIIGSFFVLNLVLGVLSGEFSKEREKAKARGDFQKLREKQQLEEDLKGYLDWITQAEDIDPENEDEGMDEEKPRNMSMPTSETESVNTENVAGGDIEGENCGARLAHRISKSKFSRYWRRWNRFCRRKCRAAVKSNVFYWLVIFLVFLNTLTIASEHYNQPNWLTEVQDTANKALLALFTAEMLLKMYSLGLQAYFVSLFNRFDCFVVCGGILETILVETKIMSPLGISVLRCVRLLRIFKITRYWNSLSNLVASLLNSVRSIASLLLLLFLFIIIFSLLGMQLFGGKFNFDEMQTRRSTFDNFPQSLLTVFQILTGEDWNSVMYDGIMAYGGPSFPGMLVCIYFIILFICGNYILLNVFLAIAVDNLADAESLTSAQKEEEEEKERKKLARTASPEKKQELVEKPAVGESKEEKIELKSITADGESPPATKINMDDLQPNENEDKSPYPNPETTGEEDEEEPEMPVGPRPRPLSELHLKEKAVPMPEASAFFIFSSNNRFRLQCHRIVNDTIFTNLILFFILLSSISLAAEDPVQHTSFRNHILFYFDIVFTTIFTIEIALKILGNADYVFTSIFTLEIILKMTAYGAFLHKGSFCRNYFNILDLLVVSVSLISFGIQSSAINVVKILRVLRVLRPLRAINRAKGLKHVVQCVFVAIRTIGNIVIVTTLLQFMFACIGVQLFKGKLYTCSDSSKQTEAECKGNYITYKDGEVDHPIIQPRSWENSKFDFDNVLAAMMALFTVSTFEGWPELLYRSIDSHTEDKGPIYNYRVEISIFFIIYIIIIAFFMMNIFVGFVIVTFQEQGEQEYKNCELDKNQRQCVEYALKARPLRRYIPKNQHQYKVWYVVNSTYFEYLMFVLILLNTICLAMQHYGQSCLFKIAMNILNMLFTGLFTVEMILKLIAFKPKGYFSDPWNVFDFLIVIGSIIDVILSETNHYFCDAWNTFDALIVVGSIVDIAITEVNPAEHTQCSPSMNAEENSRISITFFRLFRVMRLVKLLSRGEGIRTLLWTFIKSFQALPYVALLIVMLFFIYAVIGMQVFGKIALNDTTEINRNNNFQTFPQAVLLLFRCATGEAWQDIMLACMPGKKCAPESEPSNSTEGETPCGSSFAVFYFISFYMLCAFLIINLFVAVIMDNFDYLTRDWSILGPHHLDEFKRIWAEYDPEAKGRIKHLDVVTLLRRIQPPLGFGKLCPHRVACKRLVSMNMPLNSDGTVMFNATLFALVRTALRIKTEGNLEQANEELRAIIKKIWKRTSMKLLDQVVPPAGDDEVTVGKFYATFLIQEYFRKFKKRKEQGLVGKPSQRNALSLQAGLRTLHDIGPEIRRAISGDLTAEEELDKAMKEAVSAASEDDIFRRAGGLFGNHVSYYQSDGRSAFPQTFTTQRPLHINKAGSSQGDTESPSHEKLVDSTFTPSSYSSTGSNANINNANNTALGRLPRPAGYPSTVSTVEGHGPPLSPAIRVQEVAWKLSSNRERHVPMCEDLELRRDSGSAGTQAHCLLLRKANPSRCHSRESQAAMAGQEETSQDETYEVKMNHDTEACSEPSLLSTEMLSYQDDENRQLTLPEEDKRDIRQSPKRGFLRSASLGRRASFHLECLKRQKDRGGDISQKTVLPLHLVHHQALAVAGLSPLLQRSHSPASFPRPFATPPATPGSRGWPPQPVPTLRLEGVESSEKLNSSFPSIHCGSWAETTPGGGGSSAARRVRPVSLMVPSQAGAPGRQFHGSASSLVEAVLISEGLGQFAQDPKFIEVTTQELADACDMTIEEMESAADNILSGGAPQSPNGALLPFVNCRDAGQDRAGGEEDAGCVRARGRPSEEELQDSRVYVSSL
Cav1.2 (L-type), sequence (Q08289 whole entry partner): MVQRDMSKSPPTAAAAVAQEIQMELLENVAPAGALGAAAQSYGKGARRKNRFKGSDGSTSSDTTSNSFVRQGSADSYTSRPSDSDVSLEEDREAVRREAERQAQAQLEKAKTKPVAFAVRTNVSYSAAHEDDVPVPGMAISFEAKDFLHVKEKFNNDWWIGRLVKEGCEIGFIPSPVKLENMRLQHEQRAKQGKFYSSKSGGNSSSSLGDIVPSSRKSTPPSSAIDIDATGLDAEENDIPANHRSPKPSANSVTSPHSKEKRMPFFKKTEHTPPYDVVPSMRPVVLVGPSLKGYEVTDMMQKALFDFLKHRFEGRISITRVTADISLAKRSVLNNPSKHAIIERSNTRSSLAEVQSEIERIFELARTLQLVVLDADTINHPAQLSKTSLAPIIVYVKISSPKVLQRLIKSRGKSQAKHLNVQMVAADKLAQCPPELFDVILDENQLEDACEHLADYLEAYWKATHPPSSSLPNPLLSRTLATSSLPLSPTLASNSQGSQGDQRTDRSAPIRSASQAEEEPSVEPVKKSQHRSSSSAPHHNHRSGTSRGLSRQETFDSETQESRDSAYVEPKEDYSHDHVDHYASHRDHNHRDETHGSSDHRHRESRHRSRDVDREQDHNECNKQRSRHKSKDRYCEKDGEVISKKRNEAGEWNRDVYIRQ

[10] = target: CYP2C9 (Homo sapiens, UniProt P11712); assay: in vitro; conditions: recombinant CYP2C9 supersomes
CYP2C9, sequence (P11712 whole entry): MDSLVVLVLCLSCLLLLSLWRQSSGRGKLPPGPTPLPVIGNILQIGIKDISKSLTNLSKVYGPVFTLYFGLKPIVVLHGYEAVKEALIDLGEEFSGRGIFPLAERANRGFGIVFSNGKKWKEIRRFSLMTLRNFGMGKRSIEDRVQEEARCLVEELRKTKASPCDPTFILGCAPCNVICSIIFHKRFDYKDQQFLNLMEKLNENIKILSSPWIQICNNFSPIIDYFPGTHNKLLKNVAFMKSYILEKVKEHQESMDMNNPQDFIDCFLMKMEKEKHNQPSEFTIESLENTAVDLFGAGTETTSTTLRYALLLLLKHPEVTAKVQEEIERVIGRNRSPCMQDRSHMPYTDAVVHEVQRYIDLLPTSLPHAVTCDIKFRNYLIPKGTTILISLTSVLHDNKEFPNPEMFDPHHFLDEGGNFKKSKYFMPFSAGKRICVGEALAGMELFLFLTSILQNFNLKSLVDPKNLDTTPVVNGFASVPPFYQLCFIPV

[11] = tested on: CYP1A1; assay: CYP Induction Assay in dog hepatocytes; conditions: 30 and 100 μM, 48 h
[12] = tested on: C. parvum Bunch Grass Farms isolate; assay: Calibr high-content imaging Cryptosporidium panel; type: cell-based, Cryptosporidium parvum; conditions: Cryptosporidium parvum
[13] = Dog PK (r10 PO 1, r11 IV 1, r12-r14 PO 3, 10, 30 mg/kg); type: in vivo; conditions: after BKI-1708 PO 1 mg/kg
[14] = target: T2, CYP2C8 (Homo sapiens, UniProt P10632); assay: in vitro; conditions: recombinant CYP2C8 supersomes
T2 sequence (P10632 1-490): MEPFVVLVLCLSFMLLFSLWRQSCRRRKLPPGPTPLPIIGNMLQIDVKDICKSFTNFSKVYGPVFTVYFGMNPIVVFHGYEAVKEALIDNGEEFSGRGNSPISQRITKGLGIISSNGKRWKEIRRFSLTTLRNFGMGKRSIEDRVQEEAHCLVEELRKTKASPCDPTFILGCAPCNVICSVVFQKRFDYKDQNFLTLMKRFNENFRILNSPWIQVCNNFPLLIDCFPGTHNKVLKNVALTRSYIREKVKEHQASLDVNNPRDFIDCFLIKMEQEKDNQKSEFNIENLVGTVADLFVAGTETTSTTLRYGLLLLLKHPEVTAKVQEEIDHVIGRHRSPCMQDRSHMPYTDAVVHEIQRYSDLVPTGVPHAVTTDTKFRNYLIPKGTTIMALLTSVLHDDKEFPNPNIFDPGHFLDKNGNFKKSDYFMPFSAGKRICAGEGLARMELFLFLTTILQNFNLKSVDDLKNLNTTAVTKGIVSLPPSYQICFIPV

[15] = target: CYP3A4 (Homo sapiens, UniProt P08684); assay: CYP reaction phenotyping, recombinant supersomes
CYP3A4, sequence (P08684 whole entry): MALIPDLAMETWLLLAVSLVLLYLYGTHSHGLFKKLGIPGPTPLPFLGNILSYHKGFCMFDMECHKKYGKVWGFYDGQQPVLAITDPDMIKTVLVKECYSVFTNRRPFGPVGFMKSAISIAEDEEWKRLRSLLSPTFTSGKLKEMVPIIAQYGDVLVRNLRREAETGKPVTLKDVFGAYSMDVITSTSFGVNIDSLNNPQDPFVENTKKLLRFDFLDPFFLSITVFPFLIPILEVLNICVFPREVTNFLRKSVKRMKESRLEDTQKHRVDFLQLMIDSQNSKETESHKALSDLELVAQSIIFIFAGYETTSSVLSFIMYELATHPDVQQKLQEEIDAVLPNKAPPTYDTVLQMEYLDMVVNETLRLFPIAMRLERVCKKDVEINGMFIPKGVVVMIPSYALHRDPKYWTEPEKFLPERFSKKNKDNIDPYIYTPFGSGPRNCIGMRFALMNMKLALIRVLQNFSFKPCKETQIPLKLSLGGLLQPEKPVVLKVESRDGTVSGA

[16] = Plasma protein binding, equilibrium dialysis; conditions: human
[17] = target: CYP2C19 (Homo sapiens, UniProt P33261); assay: in vitro; conditions: recombinant CYP2C19 supersomes
CYP2C19, sequence (P33261 whole entry): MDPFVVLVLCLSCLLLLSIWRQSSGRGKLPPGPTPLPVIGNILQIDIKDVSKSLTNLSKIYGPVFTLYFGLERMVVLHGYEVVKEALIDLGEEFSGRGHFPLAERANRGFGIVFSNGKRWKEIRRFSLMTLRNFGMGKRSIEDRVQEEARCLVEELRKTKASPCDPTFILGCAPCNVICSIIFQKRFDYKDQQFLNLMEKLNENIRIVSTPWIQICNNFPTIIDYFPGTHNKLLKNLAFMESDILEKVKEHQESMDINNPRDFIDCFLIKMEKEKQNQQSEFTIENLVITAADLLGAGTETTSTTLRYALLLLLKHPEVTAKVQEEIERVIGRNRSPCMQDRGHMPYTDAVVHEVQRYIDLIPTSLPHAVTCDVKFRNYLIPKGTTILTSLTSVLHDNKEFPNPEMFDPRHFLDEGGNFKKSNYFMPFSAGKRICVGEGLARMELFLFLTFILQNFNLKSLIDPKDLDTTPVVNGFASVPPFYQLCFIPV

[18] = tested on: Salmonella bacteria; assay: microAmes (μAmes) test
[19] = target: T3, CYP1A2 (Homo sapiens, UniProt P05177); assay: biochemical
T3 sequence (P05177 1-516): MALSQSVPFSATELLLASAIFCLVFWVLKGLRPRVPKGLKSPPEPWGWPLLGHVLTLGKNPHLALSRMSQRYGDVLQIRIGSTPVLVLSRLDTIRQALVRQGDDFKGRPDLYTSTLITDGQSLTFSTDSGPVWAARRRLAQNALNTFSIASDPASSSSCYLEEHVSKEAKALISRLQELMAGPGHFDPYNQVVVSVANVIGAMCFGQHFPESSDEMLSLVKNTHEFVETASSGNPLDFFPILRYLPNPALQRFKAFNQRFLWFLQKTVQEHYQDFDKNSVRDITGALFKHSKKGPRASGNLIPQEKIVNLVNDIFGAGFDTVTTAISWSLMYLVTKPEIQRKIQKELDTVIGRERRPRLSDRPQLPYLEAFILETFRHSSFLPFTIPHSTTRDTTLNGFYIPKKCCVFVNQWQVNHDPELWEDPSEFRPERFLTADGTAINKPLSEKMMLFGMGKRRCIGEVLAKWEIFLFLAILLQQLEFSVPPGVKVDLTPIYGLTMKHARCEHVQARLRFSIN

[20] = target: T4, AT2 (Homo sapiens, UniProt P50052); assay: Cerep binding assay
T4 construct: Cerep (Eurofins, France)
T4 sequence (P50052 whole entry): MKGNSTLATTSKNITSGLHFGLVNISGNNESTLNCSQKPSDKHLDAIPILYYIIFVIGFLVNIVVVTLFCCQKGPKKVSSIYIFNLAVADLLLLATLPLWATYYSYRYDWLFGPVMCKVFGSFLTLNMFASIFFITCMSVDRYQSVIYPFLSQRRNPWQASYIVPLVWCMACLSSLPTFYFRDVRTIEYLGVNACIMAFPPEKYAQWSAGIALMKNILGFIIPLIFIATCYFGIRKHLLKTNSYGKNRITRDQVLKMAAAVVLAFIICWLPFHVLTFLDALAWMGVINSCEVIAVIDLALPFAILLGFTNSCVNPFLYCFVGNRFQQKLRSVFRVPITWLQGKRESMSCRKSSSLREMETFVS

[21] = Balb/c, mouse, plasma, iv, 1 mg/kg
[22] = Balb/c, mouse, plasma, po, 30 mg/kg

Q: What does the source list for `CC1(C)Cn2nc(-c3ccc4cc(OC5CC5)ccc4c3)c(C(N)=O)c2NC1O` (stereo not drawn) [M2]?
A: IC50 [1]: > 10000 nM; fraction unbound [2]: 0.05; EC50 [3]: > 10000 nM; IC50 [3]: 43000 nM; fraction unbound [4]: 0.1; fraction unbound [5]: 0.06; M2 AUC0-inf ([6]; after BKI-1708 IV 3 mg/kg): 792 ± 18 µmol·min/L; M2 AUC0-inf ([6]; after BKI-1708 PO 15 mg/kg): 5948 ± 1398 µmol·min/L; C0 [7, 21]: 4.2 ± 1.3 µM; Vd [7, 21]: 0.9 L/kg; clearance [7, 21]: 6.2 mL/min/kg; half-life [7, 21]: 1.77 h; Cmax [7, 22]: 13.1 ± 1.3 µM; Tmax [7, 22]: 1.5 h; bioavailability [7, 22]: 43%; half-life [7, 22]: 3.07 h; AUC0-inf ([7]; M2 IV 1 mg/kg): 400 ± 42 µmol·min/L; AUC0-inf ([7]; M2 PO 30 mg/kg): 5185 ± 1500 µmol·min/L; M2 AUC0-inf ([7]; after BKI-1708 IV 3 mg/kg): 988 ± 162 µmol·min/L; M2 AUC0-inf ([7]; after BKI-1708 PO 15 mg/kg): 6445 ± 654 µmol·min/L; CLint scaled [8]: 55 mL/min/kg; half-life [8]: 0.95 h; microsomal CLint [8]: 48.6 µL/min/mg; IC50 [9]: 8100 nM; CLint scaled [10]: < 1.78 mL/min/kg; half-life [10]: > 4 h; induction of CYP1A1 [11]: strong inducers; EC50 [12]: 320 nM; EC90 [12]: 770 nM; EC50 ([12]; read-out: Bunch Grass Farm C. parvum Count EC50, Crypto Panel 3 Replicate 1): 388 nM; EC50 ([12]; read-out: Bunch Grass Farm C. parvum Count EC50, Crypto Panel 3 Replicate 2): 247 nM; EC90 ([12]; read-out: Bunch Grass Farm C. parvum Count EC90, Replicate 1): 966 nM; EC90 ([12]; read-out: Bunch Grass Farm C. parvum Count EC90, Replicate 2): 569 nM; M2 AUC0-inf [13]: 196 ± 12 µmol·min/L; CLint scaled [14]: < 1.78 mL/min/kg; half-life [14]: > 4 h; % contribution [15]: 47.9%; CLint [15]: 0.141 µL/min/pmol; fraction unbound [16]: 0.04; CLint scaled [17]: < 0.117 mL/min/kg; half-life [17]: > 4 h; μAmes test result [18]: negative; IC50 [19]: > 40000 nM; IC50 [20]: 4600 nM; inhibition at 10 µM ([20]; 10 μM, agonist radioligand, mean, read-out: % inhibition of control specific binding): 50.7%
